Where no end group is shown, it is not given here.
Key:
[1] = system: sheep red blood cells (RBCs); format: cell-based
X. axonopodis = format: cell-based, Xanthomonas axonopodis; conditions: OD 600 after 16 h of growth, serial two-fold dilutions, room temperature, n = 3

## LSLIAAAGKETIRQYLKNEIKKKGRKAVIAW [Syn-safencin]
[1]
  hemolytic activity (in words): mild hemolytic activity
X. axonopodis
  MIC: 8 µM
